US20260262643A1, “HERBICIDAL BENZOXAZINES” (FMC CORPORATION, priority 2022, published 2026)

Legend:
pigweed, palmer [1] = assay: Test C postemergence; format: in vivo, Amaranthus palmeri; settings: 10 days
Method in brief: (§1)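 Soil-applied (pre) and foliar (post, 1–2 leaf, 2–10 cm) sprays; surfactant-containing non-phytotoxic solvent vehicle; loam/sand substrate. Readout: visual % control at 10 d, greenhouse, versus untreated.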

green foxtail [2] = assay: Test C preemergence; format: in vivo, Setaria viridis; settings: 0 to 100 scale (0 no effect, 100 complete control); for Plant response rating, Foxtail, Green: Preemergence, 500 g ai/ha, visual rating after 10 days; for Foxtail, Green plant response rating: Test C, preemergence, 125 g ai/ha
Method in brief: as §1

barnyardgrass [3] = assay: Test C postemergence; format: in vivo, Echinochloa crusgalli; settings: 10 days
Method in brief: as §1

rice = assay: Test D flooded paddy test; format: in vivo, Oryza sativa; settings: 250 g ai/ha, applied to paddy water, visual rating after 13 to 14 days, scale 0 to 100 (0 no effect, 100 complete control)
Method in brief: (§2)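 Plants at the 2-leaf stage were grown in pots flooded to 3 cm, and compound was applied directly into the paddy water, with depth kept throughout. After 13–14 days in a greenhouse, injury was rated visually against untreated controls on a 0–100 scale (100 = complete control); a dash means not tested.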

kochia [4] = assay: Test C preemergence; format: in vivo, Bassia scoparia; settings: 0 to 100 scale (0 no effect, 100 complete control); for Plant response rating, Kochia: Preemergence, 500 g ai/ha, visual rating after 10 days; for Kochia plant response rating: Test C, preemergence, 125 g ai/ha
Method in brief: as §1

ragweed [5] = assay: Test C preemergence; format: in vivo, Ambrosia artemisiifolia; settings: 0 to 100 scale (0 no effect, 100 complete control); for Plant response rating, Ragweed: Preemergence, 500 g ai/ha, visual rating after 10 days; for Ragweed plant response rating: Test C, preemergence, 125 g ai/ha
Method in brief: as §1

oat, wild [6] = assay: Test C preemergence; format: in vivo, Avena fatua; settings: 0 to 100 scale (0 no effect, 100 complete control); for Plant response rating, Oat, Wild: Preemergence, 500 g ai/ha, visual rating after 10 days
Method in brief: as §1

ducksalad = assay: Test D flooded paddy test; format: in vivo, Heteranthera limosa; settings: 250 g ai/ha, applied to paddy water, visual rating after 13 to 14 days, scale 0 to 100 (0 no effect, 100 complete control)
Method in brief: as §2

ragweed [7] = assay: Test C postemergence; format: in vivo, Ambrosia artemisiifolia; settings: 10 days
Method in brief: as §1

ryegrass, Italian [8] = assay: Test C preemergence; format: in vivo, Lolium multiflorum; settings: 0 to 100 scale (0 no effect, 100 complete control); for Plant response rating, Ryegrass, Italian: Preemergence, 500 g ai/ha, visual rating after 10 days; for Ryegrass, Italian plant response rating: Test C, preemergence, 125 g ai/ha
Method in brief: as §1

blackgrass [9] = assay: Test C postemergence; format: in vivo, Alopecurus myosuroides; settings: 10 days
Method in brief: as §1

pigweed, palmer [10] = assay: Test C preemergence; format: in vivo, Amaranthus palmeri; settings: 0 to 100 scale (0 no effect, 100 complete control); for Plant response rating, Pigweed, Palmer: Preemergence, 500 g ai/ha, visual rating after 10 days; for Pigweed, Palmer plant response rating: Test C, preemergence, 125 g ai/ha
Method in brief: as §1

oat, wild [11] = assay: Test C postemergence; format: in vivo, Avena fatua; settings: 10 days
Method in brief: as §1

wheat [12] = assay: Test C preemergence; format: in vivo, Triticum aestivum; settings: 0 to 100 scale (0 no effect, 100 complete control); for Plant response rating, Wheat: Preemergence, 500 g ai/ha, visual rating after 10 days; for Wheat plant response rating: Test C, preemergence, 125 g ai/ha
Method in brief: as §1

barnyardgrass [13] = assay: Test D flooded paddy test; format: in vivo, Echinochloa crus-galli; settings: 250 g ai/ha, applied to paddy water, visual rating after 13 to 14 days, scale 0 to 100 (0 no effect, 100 complete control)
Method in brief: as §2

soybean [14] = assay: Test C postemergence; format: in vivo, Glycine max; settings: 10 days
Method in brief: as §1

wheat [15] = assay: Test C postemergence; format: in vivo, Triticum aestivum; settings: 10 days
Method in brief: as §1

green foxtail [16] = assay: Test C postemergence; format: in vivo, Setaria viridis; settings: 10 days
Method in brief: as §1

blackgrass [17] = assay: Test C preemergence; format: in vivo, Alopecurus myosuroides; settings: 0 to 100 scale (0 no effect, 100 complete control); for Plant response rating, Blackgrass: Preemergence, 500 g ai/ha, visual rating after 10 days; for Blackgrass plant response rating: Test C, preemergence, 125 g ai/ha
Method in brief: as §1

sedge, umbrella = assay: Test D flooded paddy test; format: in vivo, Cyperus difformis; settings: 250 g ai/ha, applied to paddy water, visual rating after 13 to 14 days, scale 0 to 100 (0 no effect, 100 complete control)
Method in brief: as §2

soybean [18] = assay: Test C preemergence; format: in vivo, Glycine max; settings: 0 to 100 scale (0 no effect, 100 complete control); for Plant response rating, Soybean: Preemergence, 500 g ai/ha, visual rating after 10 days; for Soybean plant response rating: Test C, preemergence, 125 g ai/ha
Method in brief: as §1

corn [19] = assay: Test C preemergence; format: in vivo, Zea mays; settings: 0 to 100 scale (0 no effect, 100 complete control); for Plant response rating, Corn: Preemergence, 500 g ai/ha, visual rating after 10 days; for Corn plant response rating: Test C, preemergence, 125 g ai/ha
Method in brief: as §1

horseweed = assay: Test C postemergence; format: in vivo, Erigeron canadensis; settings: 10 days
Method in brief: as §1

ryegrass, Italian [20] = assay: Test C postemergence; format: in vivo, Lolium multiflorum; settings: 10 days
Method in brief: as §1

corn [21] = assay: Test C postemergence; format: in vivo, Zea mays; settings: 10 days
Method in brief: as §1

barnyardgrass [22] = assay: Test C preemergence; format: in vivo, Echinochloa crusgalli; settings: 0 to 100 scale (0 no effect, 100 complete control); for Plant response rating, Barnyardgrass: Preemergence, 500 g ai/ha, visual rating after 10 days; for Barnyardgrass plant response rating: Test C, preemergence, 125 g ai/ha
Method in brief: as §1

kochia [23] = assay: Test C postemergence; format: in vivo, Bassia scoparia; settings: 10 days
Method in brief: as §1

[24] = 125 g ai/ha, postemergence, 0 to 100 scale, 0 no effect, 100 complete control
[25] = Postemergence, 500 g ai/ha, visual 0 to 100 scale (0 no effect, 100 complete control)

COc1cc(C(=O)N2C[C@H](C)Oc3c(Cl)cccc32)cc(-n2cnc(C3CC3)n2)c1 [Compound 216]
Plant response rating, Pigweed, Palmer (pigweed, palmer [1]; [24]): 80 | Plant response rating, Pigweed, Palmer (pigweed, palmer [1]; [25]): 90 | Plant response rating, Foxtail, Green (green foxtail [2]): 100 | Foxtail, Green plant response rating (green foxtail [2]): 100 | Plant response rating, Barnyardgrass (barnyardgrass [3]; [24]): 10 | Plant response rating, Barnyardgrass (barnyardgrass [3]; [25]): 60 | Plant response rating, Rice (Flood) (rice): 10 | Plant response rating, Kochia (kochia [4]): 100 | Kochia plant response rating (kochia [4]): 70 | Plant response rating, Ragweed (ragweed [5]): 40 | Ragweed plant response rating (ragweed [5]): 0 | Plant response rating, Oat, Wild (oat, wild [6]): 40 | Oat, Wild plant response rating (oat, wild [6]; Test C, preemergence, 125 g ai/ha): 0 | Plant response rating, Ducksalad (Flood) (ducksalad): 100 | Plant response rating, Ragweed (ragweed [7]; [24]): 60 | Plant response rating, Ragweed (ragweed [7]; [25]): 80 | Plant response rating, Ryegrass, Italian (ryegrass, Italian [8]): 90 | Ryegrass, Italian plant response rating (ryegrass, Italian [8]): 80 | Plant response rating, Blackgrass (blackgrass [9]; [24]): 30 | Plant response rating, Blackgrass (blackgrass [9]; [25]): 100 | Plant response rating, Pigweed, Palmer (pigweed, palmer [10]): 100 | Pigweed, Palmer plant response rating (pigweed, palmer [10]): 100 | Plant response rating, Oat, Wild (oat, wild [11]; [24]): 20 | Plant response rating, Oat, Wild (oat, wild [11]; [25]): 20 | Plant response rating, Wheat (wheat [12]): 20 | Wheat plant response rating (wheat [12]): 0 | Plant response rating, Barnyardgrass (Flood) (barnyardgrass [13]): 40 | Plant response rating, Soybean (soybean [14]; [24]): 100 | Plant response rating, Soybean (soybean [14]; [25]): 100 | Plant response rating, Wheat (wheat [15]; [24]): 20 | Plant response rating, Wheat (wheat [15]; [25]): 30 | Plant response rating, Foxtail, Green (green foxtail [16]; [24]): 70 | Plant response rating, Foxtail, Green (green foxtail [16]; [25]): 90 | Plant response rating, Blackgrass (blackgrass [17]): 90 | Blackgrass plant response rating (blackgrass [17]): 20 | Plant response rating, Sedge, Umbrella (Flood) (sedge, umbrella): 95 | Plant response rating, Soybean (soybean [18]): 100 | Soybean plant response rating (soybean [18]): 50 | Plant response rating, Corn (corn [19]): 30 | Corn plant response rating (corn [19]): 0 | Plant response rating, Horseweed (horseweed; [24]): 0 | Plant response rating, Horseweed (horseweed; [25]): 50 | Plant response rating, Ryegrass, Italian (ryegrass, Italian [20]; [24]): 20 | Plant response rating, Ryegrass, Italian (ryegrass, Italian [20]; [25]): 60 | Plant response rating, Corn (corn [21]; [24]): 10 | Plant response rating, Corn (corn [21]; [25]): 20 | Plant response rating, Barnyardgrass (barnyardgrass [22]): 90 | Barnyardgrass plant response rating (barnyardgrass [22]): 40 | Plant response rating, Kochia (kochia [23]; [24]): 80 | Plant response rating, Kochia (kochia [23]; [25]): 90

C[C@H]1CN(C(=O)c2cccc(-c3ncccn3)c2)c2cccc(Cl)c2O1 [Compound 203]
Plant response rating, Pigweed, Palmer (pigweed, palmer [1]; [24]): 0 | Plant response rating, Pigweed, Palmer (pigweed, palmer [1]; [25]): 40 | Plant response rating, Foxtail, Green (green foxtail [2]): 60 | Foxtail, Green plant response rating (green foxtail [2]): 20 | Plant response rating, Barnyardgrass (barnyardgrass [3]; [24]): 0 | Plant response rating, Barnyardgrass (barnyardgrass [3]; [25]): 0 | Plant response rating, Rice (Flood) (rice): 0 | Plant response rating, Kochia (kochia [4]): 30 | Kochia plant response rating (kochia [4]): 0 | Plant response rating, Ragweed (ragweed [5]): 0 | Ragweed plant response rating (ragweed [5]): 0 | Plant response rating, Oat, Wild (oat, wild [6]): 0 | Plant response rating, Ducksalad (Flood) (ducksalad): 0 | Plant response rating, Ragweed (ragweed [7]; [24]): 0 | Plant response rating, Ragweed (ragweed [7]; [25]): 20 | Plant response rating, Ryegrass, Italian (ryegrass, Italian [8]): 20 | Ryegrass, Italian plant response rating (ryegrass, Italian [8]): 0 | Plant response rating, Blackgrass (blackgrass [9]; [24]): 0 | Plant response rating, Blackgrass (blackgrass [9]; [25]): 0 | Plant response rating, Pigweed, Palmer (pigweed, palmer [10]): 70 | Pigweed, Palmer plant response rating (pigweed, palmer [10]): 20 | Plant response rating, Oat, Wild (oat, wild [11]; [24]): 0 | Plant response rating, Oat, Wild (oat, wild [11]; [25]): 10 | Plant response rating, Wheat (wheat [12]): 0 | Wheat plant response rating (wheat [12]): 0 | Plant response rating, Barnyardgrass (Flood) (barnyardgrass [13]): 0 | Plant response rating, Soybean (soybean [14]; [24]): 100 | Plant response rating, Soybean (soybean [14]; [25]): 100 | Plant response rating, Wheat (wheat [15]; [24]): 0 | Plant response rating, Wheat (wheat [15]; [25]): 10 | Plant response rating, Foxtail, Green (green foxtail [16]; [24]): 0 | Plant response rating, Foxtail, Green (green foxtail [16]; [25]): 10 | Plant response rating, Blackgrass (blackgrass [17]): 0 | Blackgrass plant response rating (blackgrass [17]): 0 | Plant response rating, Sedge, Umbrella (Flood) (sedge, umbrella): 0 | Plant response rating, Soybean (soybean [18]): 0 | Soybean plant response rating (soybean [18]): 0 | Plant response rating, Corn (corn [19]): 0 | Corn plant response rating (corn [19]): 0 | Plant response rating, Horseweed (horseweed; [24]): 0 | Plant response rating, Horseweed (horseweed; [25]): 0 | Plant response rating, Ryegrass, Italian (ryegrass, Italian [20]; [24]): 0 | Plant response rating, Ryegrass, Italian (ryegrass, Italian [20]; [25]): 0 | Plant response rating, Corn (corn [21]; [24]): 0 | Plant response rating, Corn (corn [21]; [25]): 10 | Plant response rating, Barnyardgrass (barnyardgrass [22]): 0 | Barnyardgrass plant response rating (barnyardgrass [22]): 0 | Plant response rating, Kochia (kochia [23]; [24]): 0 | Plant response rating, Kochia (kochia [23]; [25]): 40
